Data on two compounds can be found in paper PMC6158327, “Negative Allosteric Modulators of mGlu7 Receptor as Putative Antipsychotic Drugs” (Frontiers in Molecular Neuroscience, 2018).

The test system of experiment [1] is MK-801-induced deficits in the NOR test. The experiment can be described thus: Novel object recognition test (MK-801-induced deficits). The class given is in vivo, Albino Swiss mice. The settings on record: 30 min before MK-801 (0.3 mg/kg), mice. As for the experimental part: The experiment was performed according to [Nilsson et al., 2007] with minor modifications ([Woźniak et al., 2016b]). Following a 2-day habituation period (10 min/day), a training trial was performed, where mice were allowed to explore two identical objects for 5 min. About 1 h later, a test trial was conducted, where one of the familiar object was replaced by a novel object. The animals were then allowed to explore the objects for 5 min. […] Time spend exploring (i.e., sniffing or touching) the familiar (Tfamiliar) or novel object (Tnovel) was measured by a trained observer and then the recognition index was calculated for each mouse [(Tnovel - Tfamiliar)/(Tfamiliar + Tnovel)] × 100.

The test system of experiment [2] is MK-801-induced disruption in spatial delayed alternation. The experiment can be described thus: Spatial delayed alternation test (T-maze). The settings on record: 10 mg/kg, 30 min prior to MK-801 (0.1 mg/kg), rats. The experiment is classed as in vivo, Wistar rats. As for the experimental part: The spatial delayed alternation test was performed using a wooden T-maze, according to [Sławińska et al., 2013] and [Wierońska et al., 2015b].
During the adaptation phase, lasting 3 days, the animals were allowed to freely explore the maze for 10 min. For the next 2 days, rats were confined to either of the two end-arms and allowed to drink a 10 % sucrose solution there for 10 min twice daily. On the following day, a 2-week training phase was started. The animals performed one training session per day, which consisted of one forced trial (i.e., one of the end-arms was closed) followed by ten free choice trials. During the free choice trial the animal was placed in the starting arm and after the guillotine door was raised, it was allowed to choose to enter one of the end-arms. After the response, the rat was placed back to the starting arm, where it stayed for 10 s. If the chosen end-arm was the opposite to the previously visited one, a correct response was scored, and the animal was closed in the compartment where it was allowed to drink the sucrose solution for 5 s. After an incorrect response, the animal was gently returned to the starting arm. The training phase was carried out until the animals scored 7 correct responses in a training session in 2 consecutive days.
The test was started 30 min after the MK-801 injection.

Turning to `CCc1nc2c(o1)CC(c1ccc(C)cc1C)CC2=O` (stereo not shown) [ADX71743, 6-(2,4-Dimethylphenyl)-2-ethyl-6,7-dihydro-4(5H)-benzoxazolone], the “Effect on MK-801-induced reduction of recognition index (NOR)” value in experiment [1] (1 mg/kg i.p.), in experiment [1] (5 mg/kg i.p.) and in experiment [1] (15 mg/kg i.p.) was “significant reversal of MK-801-induced effect” throughout.

Take `COc1ccc(-c2cc3onc(-c4ccncc4)c3c(=O)n2C)cc1` [MMPIP, 6-(4-Methoxyphenyl)-5-methyl-3-(4-pyridinyl)-isoxazolo(4,5-c)pyridin-4(5H)-one]: the “Effect on MK-801-induced reduction of choice accuracy (spatial delayed alternation)” value in experiment [2] is listed as “rescued the MK-801–induced cognitive impairments”.
